The text below walks through data of patent US12637478B2, “Compound, preparation method thereof, and antibiotic composition comprising same” (priority 2020, dated 2026).

One experiment has as its system C. difficile 159. Description: MIC by agar dilution against Clostridioides difficile, test strain 15. The experiment is classed as cell-based.
The next experiment deals with C. difficile 161. Kind of experiment: MIC by agar dilution against Clostridioides difficile, test strain 16. The experiment is classed as cell-based. The conditions noted are these: test strain 16, C. difficile 161, anaerobic, agar dilution, read-out: MIC.
Another experiment concerns C. difficile 152. Description: MIC by agar dilution against Clostridioides difficile, test strain 14. The experiment is classed as cell-based.
A further experiment has as its system C. difficile 174. Description: MIC by agar dilution against Clostridioides difficile, test strain 18. The experiment is classed as cell-based.
For another experiment, the system named is C. difficile 9689. Description: MIC by agar dilution against Clostridioides difficile, test strain 13. It counts as cell-based.
For another experiment, the system named is C. difficile 173. Kind of experiment: MIC by agar dilution against Clostridioides difficile, test strain 17. It counts as cell-based.
Another experiment relates to C. difficile 181. Description: MIC by agar dilution against Clostridioides difficile, test strain 19. The experiment is classed as cell-based. The conditions noted are these: test strain 19, C. difficile 181, anaerobic, agar dilution, read-out: MIC.
For experiment [1], the system named is S. aureus^MS. Description: MIC by broth microdilution (aerobic pathogens), test strain 2. The experiment is classed as cell-based. The conditions noted are these: Staphylococcus aureus. As for the experimental part: (§1) The antibacterial activity of the compounds of Examples 1 to 48 of the present invention against aerobic pathogens were evaluated by measuring the minimum concentration of the antibiotic capable of inhibiting bacterial growth by 90% compared to the growth of the non-drug treated control group. MIC was measured by the broth microdilution method based on CLSI standards [Reference: Clinical and Laboratory Standards Institute Document. (2000) Methods for Dilution Antimicrobial Susceptibility Test for Bacteria that Grow Aerobically-Fifth Edition: M7-A5. CLSI, Villanova, PA].
(§2) All 13 strains such as methicillin susceptible Staphylococcus aureus (MSSA), methicillin resistant Staphylococcus aureus (MRSA), Vancomycin resistant Staphylococcus aureus (VRSA), Staphylococcus epidermidis, methicillin resistant Staphylococcus epidermidis, Enterococcus faecalis, Vancomycin resistant Enterococcus faecalis, Enterococcus faecium, Vancomycin resistant Enterococcus faecium were used.

Another experiment relates to E. faecalis^LinR. Description: MIC by broth microdilution (aerobic pathogens), test strain 9. It counts as cell-based, Linezolid resistant Enterococcus faecalis. The conditions noted are these: Enterococcus faecalis. As for the experimental part: as §1, §2
The subject of experiment [2] is S. aureus^MS. Description: MIC by broth microdilution (aerobic pathogens), test strain 1. The experiment is classed as cell-based. The conditions noted are these: Staphylococcus aureus. As for the experimental part: as §1, §2
A further experiment concerns S. epidermis. Description: MIC by broth microdilution (aerobic pathogens), test strain 5. The experiment is classed as cell-based. The conditions noted are these: Staphylococcus epidermidis. As for the experimental part:
as §1, §2

The next experiment has as its system S. epidermis^MR. Kind of experiment: MIC by broth microdilution (aerobic pathogens), test strain 6. The conditions noted are these: Staphylococcus epidermidis. It counts as cell-based, Methicillin resistant Staphylococcus epidermidis. As for the experimental part: as §1, §2
A further experiment has as its system M. abscessus. Kind of experiment: MIC by resazurin (REMA) assay against Mycobacterium, test strain 23. It counts as cell-based. The conditions noted are these: Mycobacteroides abscessus. The procedure:
In order to test the antibacterial activity, the medium of Mycobacterium cultured to late log phase was diluted so as to be 4.0×10^5 cells/well in Middlebrook 7H10 agar medium (Difco) supplemented with 10% oleic acid, albumin, dextrose, catalase (OADC, Becton Dickinson) and 0.05% Tween 80 (Sigma Aldrich) and was dispensed into a 96-well plate. The compounds were treated so that DMSO was 1%, and after 3 days, a 0.025% resazurin (REMA) solution was dispensed, and the growth of the bacteria was confirmed after culturing. The MIC value was measured for the antibacterial activity through resazurin (excitation 530 nm, emission 590 nm).

The next experiment has as its system E. faecium^LinR. Description: MIC by broth microdilution (aerobic pathogens), test strain 12. It counts as cell-based, Linezolid resistant Enterococcus faecium. The conditions noted are these: Enterococcus faecium; test strain 12, E. faecium^LinR (linezolid resistant); read-out: MIC. The procedure:
as §1, §2

A further experiment concerns S. aureus^VR. Kind of experiment: MIC by broth microdilution (aerobic pathogens), test strain 4. It counts as cell-based, Vancomycin resistant Staphylococcus aureus. The conditions noted are these: Staphylococcus aureus; test strain 4, S. aureus^VR (vancomycin resistant); read-out: MIC. The procedure: as §1, §2
The subject of another experiment is E. faecium^VRE. Description: MIC by broth microdilution (aerobic pathogens), test strain 11. The conditions noted are these: Enterococcus faecium; test strain 11, E. faecium^VRE (vancomycin resistant); read-out: MIC. The experiment is classed as cell-based, Vancomycin resistant Enterococcus faecium. As for the experimental part: as §1, §2
Another experiment concerns E. faecium. Description: MIC by broth microdilution (aerobic pathogens), test strain 10. The experiment is classed as cell-based. The conditions noted are these: Enterococcus faecium; test strain 10, E. faecium; read-out: MIC. The procedure:
as §1, §2

The subject of another experiment is E. faecalis. Kind of experiment: MIC by broth microdilution (aerobic pathogens), test strain 7. The experiment is classed as cell-based. The conditions noted are these: Enterococcus faecalis; test strain 7, E. faecalis; read-out: MIC. The procedure:
as §1, §2

The next experiment has as its system E. faecalis^VanA. Kind of experiment: MIC by broth microdilution (aerobic pathogens), test strain 8. It counts as cell-based, Vancomycin resistant Enterococcus faecalis. The conditions noted are these: Enterococcus faecalis; test strain 8, E. faecalis^VanA (vancomycin resistant); read-out: MIC. The procedure: as §1, §2
The mark [3] stands for this setting: test strain 15, C. difficile 159, anaerobic, agar dilution, read-out: MIC.
The mark [4] stands for this setting: test strain 14, C. difficile 152, anaerobic, agar dilution, read-out: MIC.
The mark [5] stands for this setting: test strain 18, C. difficile 174, anaerobic, agar dilution, read-out: MIC.
Where [6] appears, read: test strain 13, C. difficile 9689, anaerobic, agar dilution, read-out: MIC.
[7] abbreviates: test strain 17, C. difficile 173, anaerobic, agar dilution, read-out: MIC.

Each structure is given as a SMILES string. Converted amounts (≈) assume the structure as drawn. Like-named read-outs stand apart in the source and are kept apart here.

As to `C/C=C(\NC(=O)c1csc(-c2csc(-c3ccc4c(n3)-c3csc(n3)[C@H]([C@@H](C)O)NC(=O)c3csc(n3)[C@H](C(C)C)NC(=O)c3csc(n3)/C(=C/C)NC(=O)[C@H]([C@@H](C)O)NC(=O)c3csc-4n3)n2)n1)C(=O)NCCn1cc([N+](=O)[O-])nc1C` [Compound 41], the minimal inhibitory concentration (MIC) in the experiment with C. difficile 159 (setting [3]) turned out to be 0.5 µg/mL (≈ 0.403 µM); in the experiment with C. difficile 161, 0.25 µg/mL (≈ 0.202 µM); in the experiment on C. difficile 152 (setting [4]) it was 0.25 µg/mL (≈ 0.202 µM); in the experiment on C. difficile 174 (setting [5]), 0.25 µg/mL (≈ 0.202 µM); in the experiment on C. difficile 9689 (setting [6]), 0.5 µg/mL (≈ 0.403 µM); in the experiment with C. difficile 173 (setting [7]), 0.5 µg/mL (≈ 0.403 µM). Further, in the experiment with C. difficile 181, the minimal inhibitory concentration (MIC) was found to be 1 µg/mL (≈ 0.807 µM).
In the case of `C/C=C1\NC(=O)[C@H]([C@@H](C)O)NC(=O)c2csc(n2)-c2ccc(-c3nc(-c4nc(C(=O)NC5(C(=O)NCCCN6C(=O)CN(CCC(=O)OC)C6=O)CC5)cs4)cs3)nc2-c2csc(n2)[C@H]([C@@H](C)O)NC(=O)c2csc(n2)[C@H](C(C)C)NC(=O)c2csc1n2` [Compound 16], the MIC against C. difficile 159 (159) came to 0.5 µg/mL (≈ 0.381 µM); against S. aureus^MS [1] it was 0.5 µg/mL (≈ 0.381 µM); in the experiment with E. faecalis^LinR, 0.25 µg/mL (≈ 0.19 µM); in the experiment with S. aureus^MS [2], 1 µg/mL (≈ 0.762 µM).
For `C/C=C1\NC(=O)[C@H]([C@@H](C)O)NC(=O)c2csc(n2)-c2ccc(-c3nc(-c4nc(C(=O)NC5(C(=O)NCCn6cc([N+](=O)[O-])nc6C)CC5)cs4)cs3)nc2-c2csc(n2)[C@H]([C@@H](C)O)NC(=O)c2csc(n2)[C@H](C(C)C)NC(=O)c2csc1n2` [Compound 45], the MIC in the experiment with C. difficile 159 (setting [3]) is 0.5 µg/mL (≈ 0.403 µM); with C. difficile 161 it was 0.5 µg/mL (≈ 0.403 µM); in the experiment on C. difficile 152 (setting [4]), 0.5 µg/mL (≈ 0.403 µM); with C. difficile 174 (setting [5]) it was 0.5 µg/mL (≈ 0.403 µM); in the experiment on C. difficile 9689 (setting [6]) it was 0.5 µg/mL (≈ 0.403 µM); in the experiment on C. difficile 173 (setting [7]), 1 µg/mL (≈ 0.807 µM). Besides, in the experiment on C. difficile 181, the minimal inhibitory concentration (MIC) is 1 µg/mL (≈ 0.807 µM).
For the compound `C/C=C1\NC(=O)[C@H]([C@@H](C)O)NC(=O)c2csc(n2)-c2ccc(-c3nc(-c4nc(C(=O)NC5(C(=O)NN6CC(=O)NC6=O)CC5)cs4)cs3)nc2-c2csc(n2)[C@H]([C@@H](C)O)NC(=O)c2csc(n2)[C@H](C(C)C)NC(=O)c2csc1n2` [Compound 23], the minimum inhibitory concentration (MIC) in the experiment with C. difficile 159 (159) worked out at 0.5 µg/mL (≈ 0.422 µM); in the experiment on S. epidermis, 1 µg/mL (≈ 0.844 µM); with S. aureus^MS [1] it was 0.5 µg/mL (≈ 0.422 µM); against C. difficile 152 (152), 0.25 µg/mL (≈ 0.211 µM); in the experiment on E. faecalis^LinR it was 1 µg/mL (≈ 0.844 µM); against S. epidermis^MR, 1 µg/mL (≈ 0.844 µM). Besides, the MIC is 0.226 µg/mL (≈ 0.191 µM) in the experiment on M. abscessus; 0.125 µg/mL (≈ 0.106 µM) against C. difficile 174 (174); 0.25 µg/mL (≈ 0.211 µM) against C. difficile 9689 (9689); 1 µg/mL (≈ 0.844 µM) with C. difficile 173 (173); 0.5 µg/mL (≈ 0.422 µM) against S. aureus^MS [2].
As for `C/C=C1\NC(=O)[C@H]([C@@H](C)O)NC(=O)c2csc(n2)-c2ccc(-c3nc(-c4nc(C(=O)NC5(C(=O)NCC6OB(O)c7ccccc76)CC5)cs4)cs3)nc2-c2csc(n2)[C@H]([C@@H](C)O)NC(=O)c2csc(n2)[C@H](C(C)C)NC(=O)c2csc1n2` (stereo partly drawn) [Compound 6], the MIC worked out at 0.5 µg/mL (≈ 0.406 µM) with E. faecium^LinR; 0.5 µg/mL (≈ 0.406 µM) in the experiment with S. epidermis (test strain 5, S. epidermis, read-out: MIC); 1 µg/mL (≈ 0.812 µM) in the experiment with S. aureus^VR; 0.25 µg/mL (≈ 0.203 µM) in the experiment on S. aureus^MS [1] (test strain 2, S. aureus^MS, read-out: MIC); 0.06 µg/mL (≈ 0.0487 µM) in the experiment on C. difficile 152 (setting [4]); 1 µg/mL (≈ 0.812 µM) with E. faecium^VRE. Besides, the minimal inhibitory concentration (MIC) with E. faecalis^LinR (test strain 9, E. faecalis^LinR (linezolid resistant), read-out: MIC) is 0.125 µg/mL (≈ 0.101 µM); in the experiment on S. epidermis^MR (test strain 6, S. epidermis^MR (methicillin resistant), read-out: MIC), 1 µg/mL (≈ 0.812 µM); in the experiment with C. difficile 174 (setting [5]), 0.06 µg/mL (≈ 0.0487 µM); with E. faecium, 0.25 µg/mL (≈ 0.203 µM); with C. difficile 9689 (setting [6]), 1 µg/mL (≈ 0.812 µM); in the experiment on E. faecalis it was 0.125 µg/mL (≈ 0.101 µM). The MIC in the experiment with C. difficile 173 (setting [7]) worked out at 0.06 µg/mL (≈ 0.0487 µM); with C. difficile 181, 0.06 µg/mL (≈ 0.0487 µM); with S. aureus^MS [2] (test strain 1, S. aureus^MS, read-out: MIC), 0.5 µg/mL (≈ 0.406 µM); in the experiment on E. faecalis^VanA, 1 µg/mL (≈ 0.812 µM).
